In brackets after ≈: the same amount, converted by molar mass.

For the series the following is noted: buffer; pH 7.4; 200.0 µM.
A word on the solubility (kinetic): it is solubility judged after dilution from a stock solution rather than from solid. Molecule `CC(=O)c1ccccc1NS(=O)(=O)c1cccc2nsnc12` yielded a solubility (kinetic) of 1.5 µg/mL (≈ 4.5 µM).

In turn, `O=[N+]([O-])c1cc(C(F)(F)F)ccc1N1CCN(CCO)CC1` had a solubility (kinetic) of over 47.9 µg/mL.

The molecule `O=c1[nH]cc(N2CCCCCC2)c(=O)[nH]1` gave a solubility (kinetic) of over 31.4 µg/mL.

As for `CC(=O)COC(=O)c1ccc2noc(-c3ccccc3)c2c1`, the solubility (kinetic) turned out to be 8 µg/mL (≈ 27.1 µM).

Turning to `Cc1ccc(CNC(=O)COC(=O)c2cccnc2Cl)cc1`, the solubility (kinetic) was found to be 23.7 µg/mL (≈ 74.4 µM).

In the case of `CCOC(=O)CN1C(=O)S/C(=C\c2ccc(-c3cccc(C(=O)O)c3C)o2)C1=O`, the solubility (kinetic) was 56.9 µg/mL (≈ 137 µM).

`COc1c(C(=O)Nc2ccc(Br)cn2)ccc2ccccc12` had a kinetic solubility of under 0.4 µg/mL.

Regarding `CS(=O)(=O)N1CCC(C(=O)NCc2ccc(Cl)cc2)CC1`, the kinetic solubility was over 49.6 µg/mL.

Molecule `Cc1ccc(OCC(=O)Nc2cccnc2Cl)cc1C` returned a solubility (kinetic) of 0.8 µg/mL (≈ 2.75 µM).

With `Cc1ccc(S(=O)(=O)Nc2ccc3nc(C)sc3c2)c(C)c1`, the solubility (kinetic) stood at 30 µg/mL (≈ 90.2 µM).

Turning to `O=S(=O)(Nc1cccc(S(=O)(=O)N2CCCCC2)c1)c1ccccc1F`, the kinetic solubility was over 59.8 µg/mL.

The molecule `CCOC(=O)c1c(-c2cccs2)csc1N` had a solubility (kinetic) of 26.8 µg/mL (≈ 106 µM).

Consider `Cn1c(CO)cnc1S(=O)(=O)Cc1c(Cl)cccc1Cl`, for which the solubility (kinetic) is over 50.3 µg/mL.

On to `CC(=O)Nc1ccc2sccc2c1`, for which the kinetic solubility was found to be 27.9 µg/mL (≈ 146 µM).

Consider `Cc1ccc(SCc2ccc(C(=O)N3CCCCC3)cc2)cc1`, for which the solubility (kinetic) turned out to be 6.1 µg/mL (≈ 18.7 µM).

For the molecule `CCCCNC(=O)c1cc2cccc([N+](=O)[O-])c2[nH]1`, the solubility (kinetic) amounted to 27.3 µg/mL (≈ 104 µM).

As for `CN(C)C(CNc1ccc(C(F)(F)F)cn1)c1ccccc1` (configuration not stated), the solubility (kinetic) is over 46.4 µg/mL.

For `COc1ccc(CCNC(=O)c2cc(=O)n(C)c(=O)n2C)cc1OC`, the kinetic solubility turned out to be 48.7 µg/mL (≈ 140 µM).

In turn, `C/C(=N\O)C(C)(C)Nc1ccc(Br)cc1` had a kinetic solubility of over 40.7 µg/mL.

`CCCN1C(=O)C(O)(c2c(C)[nH]c3ccccc23)c2ccccc21` (configuration not stated) had a kinetic solubility of 26.3 µg/mL (≈ 82.1 µM).

The molecule `CCN(CC(=O)Nc1c(F)cccc1F)C(=O)Cc1ccccc1` had a kinetic solubility of over 49.9 µg/mL.

In turn, `CCNC1CCS(=O)(=O)C1` (configuration not stated) had a solubility (kinetic) of over 24.5 µg/mL.

Consider `O=C(OCC(=O)N1CCOCC1)c1ccccc1Br`, for which the solubility (kinetic) is over 49.2 µg/mL.

`O=C(O)c1ccc(N2CCc3ccccc32)c([N+](=O)[O-])c1` showed a kinetic solubility of over 42.6 µg/mL.

On to `Cc1ccc(NC(=S)Nc2cccc(-c3n[nH]c(=S)o3)c2)cc1`, for which the solubility (kinetic) is over 51.4 µg/mL.

Molecule `Cc1ccc(C(C)NC(=S)NC2CCCCC2)c(C)c1` (configuration not stated) gave a kinetic solubility of 9.1 µg/mL (≈ 31.3 µM).

For the molecule `CCOc1ccc(N/C(=N/c2nc(C)cc(C)n2)NC(C)=O)cc1`, the kinetic solubility stood at 15.1 µg/mL (≈ 46.1 µM).

As for `COCCNC(=O)CN1C(=O)c2cccc3cccc1c23`, the solubility (kinetic) was over 42.6 µg/mL.

As to `O=C(COC(=O)CCc1c[nH]c2ccccc12)Nc1ccccc1`, the kinetic solubility was 4.5 µg/mL (≈ 14 µM).

Molecule `CCCn1c(=O)c(C#N)cn(C2CC2)c1=O` gave a kinetic solubility of 32.4 µg/mL (≈ 148 µM).

In turn, `CCOc1ccccc1-n1cnc(C#N)c1N` registered a kinetic solubility of over 34.2 µg/mL.

For `Cc1cccc(N2CCN(C(=O)c3ccnn3C)CC2)c1C`, the kinetic solubility is over 44.8 µg/mL.

In turn, `Cc1cc(=S)c2cccc(C)c2[nH]1` yielded a solubility (kinetic) of 26.5 µg/mL (≈ 140 µM).

As to `COc1ccc(NC(=O)c2cc3ccccc3cc2O)cc1`, the kinetic solubility came out at 1.5 µg/mL (≈ 5.11 µM).

Consider `CCOc1ccccc1N1CCN(C(=O)c2ccc3nc(N)sc3c2)CC1`, for which the kinetic solubility worked out at 7.5 µg/mL (≈ 19.6 µM).

In the case of `OC1(c2ccccc2)Cc2cccc[n+]2C1c1ccccc1.[Br-]` (configuration not stated), the kinetic solubility is over 55.2 µg/mL.

In the case of `COc1ccc(C(=O)NCCc2ccc(F)cc2)cc1OC`, the kinetic solubility was over 45.5 µg/mL.

On to `CN1CCN(S(=O)(=O)c2ccc(Cl)c3ccccc23)CC1`, for which the solubility (kinetic) amounted to 45.1 µg/mL (≈ 139 µM).

With `CN(C)C(CNC(=O)c1cc(-c2ccco2)nc2ccccc12)c1ccccc1` (configuration not stated), the solubility (kinetic) stood at 33.9 µg/mL (≈ 87.9 µM).

Molecule `Oc1c(C=Nc2cccc3nsnc23)ccc2ccccc12` had a kinetic solubility of 19.3 µg/mL (≈ 63.2 µM).

In the case of `O=C(Nc1ccccc1Cl)c1ccccc1`, the solubility (kinetic) stood at 19.2 µg/mL (≈ 82.9 µM).

`CC(C)c1ccc(NC(=O)Cn2c(=O)oc3ccccc32)cc1` returned a kinetic solubility of 2.1 µg/mL (≈ 6.77 µM).

`Cc1ccccc1Nc1c(-c2ccccn2)nc2c(C)cccn12` displayed a kinetic solubility of 1 µg/mL (≈ 3.18 µM).

`COc1ccc(CN(C#N)c2nc(C)cc(C)n2)cc1` had a solubility (kinetic) of 38.5 µg/mL (≈ 143 µM).

`O=C(CSc1nccc(=O)[nH]1)NCc1ccc2c(c1)OCO2`: the kinetic solubility was over 47.9 µg/mL.

The molecule `CC(C)(C#CC(O)(c1ccccc1)c1ccccc1)N1CCCC1.Cl` displayed a solubility (kinetic) of over 53.4 µg/mL.

For the molecule `Cc1cc(SCc2ccccc2Cl)nc(=O)[nH]1`, the kinetic solubility turned out to be 30 µg/mL (≈ 112 µM).

In turn, `Cc1ccc(N=C2NC(=O)/C(=C/c3cccn3C)S2)cc1C` yielded a kinetic solubility of 0.9 µg/mL (≈ 2.89 µM).

As for `O=C(COC(=O)c1ccco1)NC1CCCc2ccccc21` (configuration not stated), the solubility (kinetic) was over 44.9 µg/mL.

Molecule `N#CC(c1cccnc1)N1CCOCC1` (configuration not stated) returned a solubility (kinetic) of over 30.5 µg/mL.

For the molecule `O=C(OCc1ccccc1)N1CCc2ccccc21`, the kinetic solubility is 0.9 µg/mL (≈ 3.55 µM).

Molecule `CCN1CCN(c2cc(C)nc(-c3ccccc3O)n2)CC1` showed a solubility (kinetic) of over 44.8 µg/mL.
